The subject of this test is CD2F1 mice, L1210 leukemia ip, survival T/C. The experiment in a line: NCI In Vivo Anticancer Drug Screen. Data for tumor model L1210 Leukemia (intraperitoneal) in CD2F1 (CDF1) mice. The note with it: higher = longer survival. The method, boiled down:
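Implant tumor; dose compound or vehicle; measure endpoint in both groups; report treated divided by control.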

Setting [1] is: endpoint: mean survival time, dose: 100.0 mg/kg/injection, schedule: Q01DX009 (ip), vehicle: saline with Tween-80.
Setting [2] is: endpoint: mean survival time, dose: 200.0 mg/kg/injection, schedule: Q04DX003 (ip), vehicle: saline with Tween-80.
[3] abbreviates: endpoint: mean survival time, dose: 400.0 mg/kg/injection, schedule: Q04DX003 (ip), vehicle: saline with Tween-80.
The mark [4] stands for this setting: endpoint: mean survival time, dose: 25.0 mg/kg/injection, schedule: Q01DX009 (ip), vehicle: saline with Tween-80.
[5] abbreviates: endpoint: mean survival time, dose: 50.0 mg/kg/injection, schedule: Q01DX009 (ip), vehicle: saline with Tween-80.
Where [6] appears, read: endpoint: mean survival time, dose: 25.0 mg/kg/injection, schedule: Q01DX009 (ip), vehicle: Klucel (hydroxypropylcellulose) (HPC).
Setting [7] is: endpoint: mean survival time, dose: 50.0 mg/kg/injection, schedule: Q01DX009 (ip), vehicle: Klucel (hydroxypropylcellulose) (HPC).
The mark [8] stands for this setting: endpoint: mean survival time, dose: 100.0 mg/kg/injection, schedule: Q01DX009 (ip), vehicle: Klucel (hydroxypropylcellulose) (HPC).
Setting [9] is: endpoint: mean survival time, dose: 100.0 mg/kg/injection, schedule: Q04DX003 (ip), vehicle: saline with Tween-80.
Where [10] appears, read: endpoint: mean survival time, dose: 50.0 mg/kg/injection, schedule: Q01DX009 (ip), vehicle: other.
Setting [11] is: endpoint: mean survival time, dose: 100.0 mg/kg/injection, schedule: Q01DX009 (ip), vehicle: other.
Where [12] appears, read: endpoint: mean survival time, dose: 200.0 mg/kg/injection, schedule: Q01DX009 (ip), vehicle: saline with Tween-80.

“And” between values parts separate entries of the source, which are not always exact repeats. Identical values can stand only once. Toxic doses and inconclusive results are not listed.

Take `CCOC(=O)Nc1cc(NC(C)/C(=N/O)c2ccccc2)c([N+](=O)[O-])c(N)n1` (stereo not given): the T/C runs as follows: (endpoint: median survival time, dose: 25.0 mg/kg/injection, schedule: Q01DX005 (ip), vehicle: Klucel (hydroxypropylcellulose) (HPC)) 119 % of control and 98 % of control; (endpoint: median survival time, dose: 30.0 mg/kg/injection, schedule: Q01DX005 (ip), vehicle: Klucel (hydroxypropylcellulose) (HPC)) 98 % of control; (endpoint: median survival time, dose: 40.0 mg/kg/injection, schedule: Q01DX005 (ip), vehicle: Klucel (hydroxypropylcellulose) (HPC)) 119 % of control; (endpoint: median survival time, dose: 60.0 mg/kg/injection, schedule: Q01DX005 (ip), vehicle: Klucel (hydroxypropylcellulose) (HPC)) 110 % of control; (endpoint: median survival time, dose: 120.0 mg/kg/injection, schedule: Q01DX005 (ip), vehicle: Klucel (hydroxypropylcellulose) (HPC)) 122 % of control; (endpoint: median survival time, dose: 200.0 mg/kg/injection, schedule: Q01DX005 (ip), vehicle: Klucel (hydroxypropylcellulose) (HPC)) 188 % of control.
On to `O=C(/C=C\c1ccc(NCc2ccc(C(=O)O)cc2)cc1)CCl`, for which the T/C under setting [1] is 111 % of control, the T/C under setting [2] is 91 % of control and the T/C under setting [3] was 86 % of control.
Consider `CC/C=N/Nc1ccc([N+](=O)[O-])cc1[N+](=O)[O-]`, for which the T/C reads like this: (endpoint: mean survival time, dose: 12.5 mg/kg/injection, schedule: Q01DX009 (ip), vehicle: saline with Tween-80) 91 % of control; under setting [4], 92 % of control; under setting [5], 93 % of control.
For the molecule `Cc1c(CNc2ccc(C(=O)NC(CC(=O)O)CC(=O)O)cc2)ccc2nc(N)nc(N)c12`, the T/C runs as follows: (endpoint: mean survival time, dose: 0.25 mg/kg/injection, schedule: Q01DX009 (ip), vehicle: saline) 171 % of control; (endpoint: mean survival time, dose: 0.5 mg/kg/injection, schedule: Q01DX009 (ip), vehicle: saline) 118 % of control; (endpoint: mean survival time, dose: 1.0 mg/kg/injection, schedule: Q01DX009 (ip), vehicle: saline) 104 % of control.
In the case of `COC(=O)C1(c2ccccn2)CCN(C)CC1`, the T/C runs as follows: (endpoint: mean survival time, dose: 100.0 mg/kg/injection, schedule: Q01DX009 (ip), vehicle: saline) 102 % of control; (endpoint: mean survival time, dose: 200.0 mg/kg/injection, schedule: Q01DX009 (ip), vehicle: saline) 98 % of control; (endpoint: mean survival time, dose: 400.0 mg/kg/injection, schedule: Q01DX009 (ip), vehicle: saline) 101 % of control.
As for `COc1cccc(CCC(=O)O)c1OC`, the T/C under setting [6] is 98 % of control; the T/C under setting [7] was 101 % of control; the T/C under setting [8] was 98 % of control; the T/C (endpoint: mean survival time, dose: 200.0 mg/kg/injection, schedule: Q01DX009 (ip), vehicle: Klucel (hydroxypropylcellulose) (HPC)) is 87 % of control; the T/C (endpoint: mean survival time, dose: 400.0 mg/kg/injection, schedule: Q01DX009 (ip), vehicle: Klucel (hydroxypropylcellulose) (HPC)) is 88 % of control.
`O=C(/C=C1\C(=O)Nc2ccccc21)/C=C1/C(=O)Nc2ccccc21`: the T/C was 97 % of control under setting [6], 104 % of control under setting [7] and 95 % of control under setting [8].
For the molecule `O=C(O)c1cc2ccccc2o1`, the T/C (endpoint: mean survival time, dose: 100.0 mg/kg/injection, schedule: Q01DX001 (ip), vehicle: saline with Tween-80) was 94 % of control; the T/C under setting [9] is 95 % of control; the T/C (endpoint: mean survival time, dose: 200.0 mg/kg/injection, schedule: Q01DX001 (ip), vehicle: saline with Tween-80) is 98 % of control; the T/C under setting [2] was 94 % of control.
As for `CC(=O)NNC(=O)c1ccccc1`, the T/C was 95 % of control and 105 % of control under setting [10]; 97 % of control and 108 % of control under setting [11]; 93 % of control and 97 % of control (endpoint: mean survival time, dose: 200.0 mg/kg/injection, schedule: Q01DX009 (ip), vehicle: other); 90 % of control (endpoint: mean survival time, dose: 300.0 mg/kg/injection, schedule: Q01DX009 (ip), vehicle: other).
For the molecule `COc1cc2c[n+](C)c3c(c2cc1OC)Cc1cc2c(cc1-3)OCO2`, the T/C is, setting by setting: (endpoint: median survival time, dose: 6.0 mg/kg/injection, schedule: Q01DX009 (ip), vehicle: saline with Tween-80) 122 % of control; (endpoint: median survival time, dose: 25.0 mg/kg/injection, schedule: Q01DX009 (ip), vehicle: saline with Tween-80) 152 % of control and 162 % of control; (endpoint: median survival time, dose: 50.0 mg/kg/injection, schedule: Q01DX009 (ip), vehicle: saline with Tween-80) 164 % of control and 168 % of control; (endpoint: median survival time, dose: 100.0 mg/kg/injection, schedule: Q01DX009 (ip), vehicle: saline with Tween-80) 94 % of control.
`CNC(C(=O)O)c1ccccc1` (stereo not given): the T/C under setting [4] is 101 % of control; the T/C under setting [5] was 100 % of control; the T/C under setting [1] is 92 % of control and 94 % of control; the T/C under setting [9] is 92 % of control; the T/C under setting [2] was 101 % of control; the T/C under setting [3] is 89 % of control.
For the molecule `CC(C)=C(C)c1ccccc1`, the T/C is 103 % of control under setting [5], 106 % of control under setting [1] and 103 % of control under setting [12].
On to `CCCCCCCCCCCCCC(=O)OC1C(CO)OC2C1Oc1nc(=N)ccn12` (stereo not given), for which the T/C is 153 % of control (endpoint: mean survival time, dose: 25.0 mg/kg/injection, schedule: Q01DX009 (ip), vehicle: other); 212 % of control under setting [10]; 278 % of control under setting [11].
With `CC(C)[S][Pb]([c]1ccccc1)([c]1ccccc1)[c]1ccccc1`, the T/C (endpoint: mean survival time, dose: 1.25 mg/kg/injection, schedule: Q01DX009 (ip), vehicle: gum acacia) is 93 % of control; the T/C (endpoint: mean survival time, dose: 2.5 mg/kg/injection, schedule: Q01DX009 (ip), vehicle: gum acacia) was 98 % of control; the T/C (endpoint: mean survival time, dose: 5.0 mg/kg/injection, schedule: Q01DX009 (ip), vehicle: gum acacia) is 96 % of control.
As for `NC(=O)CCC(NC(=O)c1cnc2ccccc2n1)C(=O)O` (stereo not given), the T/C was 97 % of control (endpoint: mean survival time, dose: 100.0 mg/kg/injection, schedule: Q01DX001 (ip), vehicle: saline); 105 % of control (endpoint: mean survival time, dose: 100.0 mg/kg/injection, schedule: Q04DX003 (ip), vehicle: saline); 97 % of control (endpoint: mean survival time, dose: 200.0 mg/kg/injection, schedule: Q01DX001 (ip), vehicle: saline); 100 % of control (endpoint: mean survival time, dose: 200.0 mg/kg/injection, schedule: Q04DX003 (ip), vehicle: saline); 95 % of control (endpoint: mean survival time, dose: 400.0 mg/kg/injection, schedule: Q01DX001 (ip), vehicle: saline); 102 % of control (endpoint: mean survival time, dose: 400.0 mg/kg/injection, schedule: Q04DX003 (ip), vehicle: saline).
As to `CCOCc1ccc(C(=O)O)cc1`, the T/C is 96 % of control under setting [1]; 101 % of control under setting [12]; 101 % of control (endpoint: mean survival time, dose: 400.0 mg/kg/injection, schedule: Q01DX009 (ip), vehicle: saline with Tween-80).
Turning to `Cn1c(=O)c2c(ncn2C(C=O)OC(C=O)CO)n(C)c1=O` (stereo not given), the T/C is 101 % of control (endpoint: mean survival time, dose: 12.5 mg/kg/injection, schedule: Q01DX005 (ip), vehicle: water); 104 % of control (endpoint: mean survival time, dose: 25.0 mg/kg/injection, schedule: Q01DX005 (ip), vehicle: water); 110 % of control (endpoint: mean survival time, dose: 50.0 mg/kg/injection, schedule: Q01DX005 (ip), vehicle: water); 112 % of control (endpoint: mean survival time, dose: 100.0 mg/kg/injection, schedule: Q01DX005 (ip), vehicle: water).
As to `N=C(N)c1ccc(OCCCCOc2ccc(NC(=O)Nc3ccc(S(=O)(=O)F)cc3Cl)cc2)cc1`, the T/C is 98 % of control (endpoint: mean survival time, dose: 12.5 mg/kg/injection, schedule: Q01DX001 (ip), vehicle: saline with Tween-80); 98 % of control (endpoint: mean survival time, dose: 25.0 mg/kg/injection, schedule: Q01DX001 (ip), vehicle: saline with Tween-80); 96 % of control (endpoint: mean survival time, dose: 50.0 mg/kg/injection, schedule: Q01DX001 (ip), vehicle: saline with Tween-80).
For the molecule `CC(C)CC(NC(=O)C(N)Cc1ccc(N(CCCl)CCCl)cc1)C(=O)O` (stereo not given), the T/C reads like this: (endpoint: mean survival time, dose: 1.0 mg/kg/injection, schedule: Q04DX003 (ip), vehicle: saline with Tween-80) 106 % of control; (endpoint: mean survival time, dose: 2.0 mg/kg/injection, schedule: Q04DX003 (ip), vehicle: saline with Tween-80) 111 % of control; (endpoint: mean survival time, dose: 4.0 mg/kg/injection, schedule: Q04DX003 (ip), vehicle: saline with Tween-80) 113 % of control; (endpoint: mean survival time, dose: 8.0 mg/kg/injection, schedule: Q04DX003 (ip), vehicle: saline with Tween-80) 118 % of control; (endpoint: mean survival time, dose: 32.0 mg/kg/injection, schedule: Q04DX003 (ip), vehicle: saline with Tween-80) 112 % of control; (endpoint: mean survival time, dose: 64.0 mg/kg/injection, schedule: Q04DX003 (ip), vehicle: saline with Tween-80) 121 % of control.

The record behind these values is PubChem BioAssay AID256 (DTP/NCI, 2004).
